Measurements as given in patent publication US12172975B2, “1H-indazole carboxamides as receptor-interacting protein kinase 1 inhibitors (RIPK1)” (BRISTOL-MYERS SQUIBB COMPANY, priority 2018, dated 2024).
Read-outs that look alike come from different tables or passages of the source.

Assays:
[1] = biological target: His-GST-TVMV-hRIPK1 (1-324) (Homo sapiens (Human), UniProt Q13546); assay: biochemical
Description: A solution was prepared containing 0.2 nM Anti GST-Tb (Cisbio, 61GSTTLB), 90.6 nM probe and 1 nM His-GST-TVMV-hRIPK1 (1-324) in FRET Buffer (20 mM HEPES, 10 mM MgCl2, 0.015% Brij-35, 4 mM DTT, 0.05 mg/mL BSA). Using Formulatrix Tempest, the detection antibody/enzyme/probe solution (2 mL) was dispensed into wells of a 1536 plate (Black Low Binding Polystyrene 1536 Plate (Corning, 3724)) containing 10 nL of compounds of interest at appropriate concentration in DMSO. The plate was incubated at rt for 1 h. FRET was measured using the EnVision plate reader (Excitation: 340 nm, Emission: 520 nm/495 nM). Total signal (0% inhibition) was calculated from wells containing 10 nL DMSO only.

[2] = system: MLKL phosphorylation in HT29-L23 human colorectal adenocarcinoma cells; assay: MLKL Phosphorylation High-Content Assay; assay type: cell-based; conditions: necroptosis induced with TNFα, SMAC mimetic and Z-VAD, 6 h, read-out: pMLKL (IC50)
Outline: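 HT29-L23 cells were induced to necroptosis with TNFα (35 ng/mL), SMAC mimetic (700 nM) and Z-VAD (140 nM) for 6 h at 37 °C. Phospho-MLKL (S358) immunofluorescence was imaged and quantified per cell; maximal inhibition set by Nec-1s (6.25 μM), and IC50/Ymax from 4-parameter logistic fit.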

Chain of His-GST-TVMV-hRIPK1 (1-324) (Q13546 1-324): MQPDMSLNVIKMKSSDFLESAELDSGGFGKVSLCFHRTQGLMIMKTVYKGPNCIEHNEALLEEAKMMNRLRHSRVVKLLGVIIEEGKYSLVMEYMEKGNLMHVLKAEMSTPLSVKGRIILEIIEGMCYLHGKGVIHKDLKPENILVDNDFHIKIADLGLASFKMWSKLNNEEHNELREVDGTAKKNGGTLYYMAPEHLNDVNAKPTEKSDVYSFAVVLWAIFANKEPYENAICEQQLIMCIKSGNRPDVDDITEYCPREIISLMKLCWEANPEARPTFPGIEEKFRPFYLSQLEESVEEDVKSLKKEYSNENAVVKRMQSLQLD

SMILES	IC50 [1] [nM]	IC50 [2] [nM]	IC50 ([2]; Homo sapiens) [nM]
CNC(=O)c1n[nH]c2cc(-c3cnc(OC)c(C(=O)NC4CCCC(c5ccccc5)C4)c3)ccc12 (single isomer, unassigned) [Example 21-4, 6-{6-methoxy-5-[(3-phenylcyclohexyl)carbamoyl]pyridin-3-yl}-N-methyl-1H-indazole-3-carboxamide]	2	2	
[2H]C([2H])([2H])N(C1CCC(NC(=O)c2n[nH]c3cc(-c4cnc(OC)c(C(=O)NCc5ccccc5OC(F)(F)F)c4)ccc23)CC1)C([2H])([2H])[2H] (stereo not shown) [Example 188, N-{4-[di(deutero)methylamino]-cyclohexyl}-6-[6-methoxy-5-({[2-(trifluoromethoxy)phenyl]-methyl}carbamoyl)pyridin-3-yl]-1H-indazole-3-carboxamide]	23		130
[2H]C([2H])([2H])Oc1ncc(-c2ccc3c(C(=O)NC([2H])([2H])C([2H])([2H])[2H])n[nH]c3c2)cc1C(=O)N[C@@H]1CN(C(=O)C2CC(F)(F)C2)C[C@@H]1F [Example 192, 6-(5-{[(3R,4S)-1-(3,3-difluorocyclo-butanecarbonyl)-4-fluoropyrrolidin-3-yl]carbamoyl}-6-(deutero)methoxy-pyridin-3-yl)-N-[(1,1,2,2,2-deutero)-ethyl]-1H-indazole-3-carboxamide]	110		430
[2H]C([2H])([2H])Oc1ncc(-c2ccc3c(C(=O)NC4CC4)n[nH]c3c2)cc1C(=O)N[C@@H](C)CC(=O)OC(C)(C)C [Example 195, tert-butyl (3S)-3-({5-[3-(cyclo-propylcarbamoyl)-1H-indazol-6-yl]-2-(deutero)methoxypyridin-3-yl}formamido)butanoate]	36	39	
[2H]C([2H])([2H])Oc1ncc(-c2ccc3c(C(=O)NC4CC4)n[nH]c3c2)cc1C(=O)N[C@H](C)CC(=O)OC(C)(C)C [Example 196, tert-butyl (3R)-3-({5-[3-(cyclo-propylcarbamoyl)-1H-indazol-6-yl]-2-(deutero)methoxypyridin-3-yl}formamido)butanoate]	84	19	
[2H]C([2H])([2H])Oc1ncc(-c2ccc3c(C(=O)NC4CC4)n[nH]c3c2)cc1C(=O)N[C@H](C)c1ccccc1C(F)(F)F [Example 209, N-cyclopropyl-6-[6-(deutero)-methoxy-5-{[(1R)-1-[2-(trifluoro-methyl)phenyl]ethyl]carbamoyl}-pyridin-3-yl]-1H-indazole-3-carboxamide]	33		74
[2H]C([2H])([2H])Oc1ncc(-c2ccc3c(C(=O)NC([2H])([2H])C([2H])([2H])[2H])n[nH]c3c2)cc1C(=O)N[C@@H](C)c1cc(OC(F)(F)F)ccc1F [Example 224, N-[(1,1,2,2,2-deutero)ethyl]-6-(5-{[(1S)-1-[2-fluoro-5-(trifluorometh-oxy)phenyl]ethyl]carbamoyl}-6-(deutero)methoxypyridin-3-yl)-1H-indazole-3-carboxamide]	17		12
[2H]C([2H])([2H])Oc1ncc(-c2ccc3c(C(=O)NC([2H])([2H])C([2H])([2H])[2H])n[nH]c3c2)cc1C(=O)N[C@@H](C)c1cc(C(F)(F)F)ccc1F [Example 226, N-[(1,1,2,2,2-deutero)ethyl]-6-(5-{[(1S)-1-[2-fluoro-5-(trifluoro-methyl)phenyl]ethyl]carbamoyl}-6-(deutero)methoxypyridin-3-yl)1H-indazole-3-carboxamide]	57		41
[2H]C([2H])([2H])Oc1ncc(-c2ccc3c(C(=O)NC([2H])([2H])C([2H])([2H])[2H])n[nH]c3c2)cc1C(=O)N[C@H](C)c1cccc(C(F)(F)F)c1 [Example 229, N-[(1,1,2,2,2-deutero)ethyl]-6-[6-(deutero)methoxy-5-{[(1R)-1-[3-(trifluoromethyl)phenyl]ethyl]car-bamoyl}pyridin-3-yl]-1H-indazole-3-carboxamide]	210		82
[2H]C([2H])([2H])Oc1ncc(-c2ccc3c(C(=O)NC([2H])([2H])C([2H])([2H])[2H])n[nH]c3c2)cc1C(=O)N[C@@H](C)c1cccc(C(F)(F)F)c1 [Example 230, N-[(1,1,2,2,2-deutero)ethyl]-6-[6-(deutero)methoxy-5-{[(1S)-1-[3-(trifluoromethyl)phenyl]ethyl]car-bamoyl}pyridin-3-yl]-1H-indazole-3-carboxamide]	11		55
[2H]C([2H])([2H])Oc1ncc(-c2ccc3c(C(=O)NC([2H])([2H])C([2H])([2H])[2H])n[nH]c3c2)cc1C(=O)N[C@H](C)c1cccc(OC(F)(F)F)c1 [Example 231, N-[(1,1,2,2,2-deutero)ethyl]-6-[6-(deutero)methoxy-5-{[(1R)-1-[3-(trifluoromethoxy)phenyl]ethyl]-carbamoyl}pyridin-3-yl]-1H-indazole-3-carboxamide]	48		10
[2H]C([2H])([2H])Oc1ncc(-c2ccc3c(C(=O)NC([2H])([2H])C([2H])([2H])[2H])n[nH]c3c2)cc1C(=O)N[C@H](C)c1ccccc1C(F)(F)F [Example 235, N-[(1,1,2,2,2-deutero)ethyl]-6-[6-(deutero)methoxy-5-{[(1R)-1-[2-(trifluoromethyl)phenyl]ethyl]car-bamoyl}pyridin-3-yl]-1H-indazole-3-carboxamide]	34		48
[2H]C([2H])([2H])Oc1ncc(-c2ccc3c(C(=O)NC([2H])([2H])C([2H])([2H])[2H])n[nH]c3c2)cc1C(=O)NCC[C@@H](O)c1ccc(Cl)cc1 [Example 237, 6-(5-{[(3R)-3-(4-chlorophenyl)-3-hydroxypropyl]carbamoyl}-6-(deutero)methoxypyridin-3-yl)-N-[(1,1,2,2,2-deutero)ethyl]-1H-indazole-3-carboxamide]	6.3		14
[2H]C([2H])([2H])Oc1ncc(-c2ccc3c(C(=O)NC([2H])([2H])C([2H])([2H])[2H])n[nH]c3c2)cc1C(=O)N[C@@H](C)CC(=O)OC(C)(C)C [Example 238, tert-butyl (3S)-3-{[5-(3-{[(1,1,2,2,2-deutero)ethyl]carbamoyl}-1H-indazol-6-yl)-2-(deutero)methoxy-pyridin-3-yl]formamido}butanoate]	47		41
